Assays:
[1] = (§1) Apparent permeability from basolateral to apical side of human Caco2 cells; type: ADME, cell-based; conditions: caco-2
[2] = Metabolic stability in human hepatic microsomes assessed as compound turnover at 5 uM in absence of NADPH after 30 mins; type: ADME; conditions: liver microsomes, read-out: Activity
[3] = Metabolic stability in rat hepatic microsomes assessed as compound turnover at 5 uM in presence of NADPH after 30 mins; type: ADME; conditions: liver microsomes, read-out: Activity
[4] = Metabolic stability in rat hepatic microsomes assessed as compound turnover at 5 uM in absence of NADPH after 30 mins; type: ADME; conditions: liver microsomes, read-out: Activity
[5] = (§2) Apparent permeability from apical to basolateral side of the human Caco2 cells; type: ADME, cell-based; conditions: caco-2
[6] = biological target: T1, Mitogen-activated protein kinase 14 (Homo sapiens, UniProt Q16539); test: Inhibition of p38alpha in human whole blood assessed as reduction in TNF-alpha production by ELISA
[7] = Metabolic stability in human hepatic microsomes assessed as compound turnover at 5 uM in presence of NADPH after 30 mins; type: ADME; conditions: liver microsomes, read-out: Activity
[8] = tested on: Caco-2; test: as §1; type: ADME, cell-based
[9] = biological target: T1, Mitogen-activated protein kinase 14; test: Inhibition of human p38alpha using biotinylated ATF2 substrate by FRET assay
[10] = tested on: CHO; test: Cytotoxicity against CHO cells; type: cell-based; conditions: Cricetulus griseus
[11] = tested on: Caco-2; test: as §2; type: ADME, cell-based
[12] = Cytotoxicity against CHO cells at 200 uM; type: cell-based, Cricetulus griseus; conditions: chinese hamster, read-out: INH
[13] = Clearance in rat at 1 mg/kg, iv; type: ADME, organism-based; design: dose 1 mg/kg, route intravenous; conditions: in vivo
[14] = Volume of distribution at steady state in rat at 1 mg/kg, iv; type: ADME, organism-based; design: dose 1 mg/kg, route intravenous; conditions: in vivo, read-out: Vdss
[15] = Cmax in rat at 1 mg/kg, iv; type: ADME, organism-based; design: dose 1 mg/kg, route intravenous; conditions: in vivo
[16] = AUC (0 to infinity) in rat at 1 mg/kg, iv; type: ADME, organism-based; design: time infinity, dose 1 mg/kg, route intravenous; conditions: plasma
[17] = Mean residence time in rat at 1 mg/kg, iv; type: ADME, organism-based; design: dose 1 mg/kg, route intravenous; conditions: in vivo
[18] = Terminal half life in rat at 1 mg/kg, iv; type: ADME, organism-based; design: dose 1 mg/kg, route intravenous; conditions: in vivo, read-out: beta t1/2 (converted)
[19] = AUC (0 to infinity) in rat at 10 mg/kg, po; type: ADME, organism-based; design: time infinity, dose 10 mg/kg, route oral; conditions: plasma
[20] = Oral bioavailability in rat at 10 mg/kg; type: ADME, organism-based; conditions: in vivo
[21] = Cmax in rat at 10 mg/kg, po; type: ADME, organism-based; design: dose 10 mg/kg, route oral; conditions: in vivo
[22] = biological target: RAF proto-oncogene serine/threonine-protein kinase (Homo sapiens, UniProt P04049); test: Inhibition of human c-RAF
RAF proto-oncogene serine/threonine-protein kinase, sequence (P04049 whole entry): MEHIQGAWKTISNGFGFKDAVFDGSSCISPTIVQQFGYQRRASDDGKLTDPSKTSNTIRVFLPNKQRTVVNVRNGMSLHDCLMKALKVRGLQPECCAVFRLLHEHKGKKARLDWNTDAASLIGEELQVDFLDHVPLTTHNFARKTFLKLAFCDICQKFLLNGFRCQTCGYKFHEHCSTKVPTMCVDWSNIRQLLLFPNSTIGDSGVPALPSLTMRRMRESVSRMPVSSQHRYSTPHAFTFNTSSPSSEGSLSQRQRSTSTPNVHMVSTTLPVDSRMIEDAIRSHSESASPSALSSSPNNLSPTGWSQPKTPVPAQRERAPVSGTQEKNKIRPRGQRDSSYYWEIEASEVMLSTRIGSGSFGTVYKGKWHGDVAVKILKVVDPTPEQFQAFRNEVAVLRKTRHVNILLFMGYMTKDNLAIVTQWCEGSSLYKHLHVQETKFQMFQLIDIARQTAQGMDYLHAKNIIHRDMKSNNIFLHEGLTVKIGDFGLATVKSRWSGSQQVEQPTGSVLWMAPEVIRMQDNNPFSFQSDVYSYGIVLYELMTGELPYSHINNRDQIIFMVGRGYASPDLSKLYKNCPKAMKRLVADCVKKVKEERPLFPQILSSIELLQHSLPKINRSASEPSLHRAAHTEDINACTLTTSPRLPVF

T1 sequence (Q16539 whole entry): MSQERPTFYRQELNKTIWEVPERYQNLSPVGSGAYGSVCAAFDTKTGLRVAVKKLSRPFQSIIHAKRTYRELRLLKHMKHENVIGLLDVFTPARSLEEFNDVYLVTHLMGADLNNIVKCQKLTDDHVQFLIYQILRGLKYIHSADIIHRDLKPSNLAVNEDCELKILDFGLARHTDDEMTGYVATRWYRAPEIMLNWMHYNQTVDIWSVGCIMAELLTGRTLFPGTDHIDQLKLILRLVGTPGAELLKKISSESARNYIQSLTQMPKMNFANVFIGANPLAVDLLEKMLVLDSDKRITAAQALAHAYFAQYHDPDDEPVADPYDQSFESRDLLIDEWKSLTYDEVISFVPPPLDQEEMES

Row | SMILES | metabolised at 0.5 h, 5 µM [2] | metabolised at 0.5 h, 5 µM [3] | metabolised at 0.5 h, 5 µM [4] | IC50 [6] | metabolised at 0.5 h, 5 µM [7] | Papp [8] | IC50 [9] | Papp [11] | further results
1 | Cc1ccc(C(=O)NC2CC2)cc1-c1ccc2c(c1)NC(=O)C21CCS(=O)(=O)CC1 | 11% | 0% | < 5% | 75 nM | 5% | – | – | – | Papp B→A [1]: 25 ×10⁻⁶ cm/s; Papp A→B [5]: 4 ×10⁻⁶ cm/s
2 | Cc1ccc(C(=O)NC2CC2)cc1-c1cnc2c(c1)NC(=O)C21CCC(F)(F)CC1 | < 5% | 19% | < 5% | 188 nM | 1% | permeable | 2.3 nM | permeable | IC50 [10]: 49000 nM
3 | Cc1ccc(C(=O)NC2CC2)cc1-c1ccc2c(c1)NC(=O)C21CCSCC1 | 41% | 97% | < 5% | 16 nM | 72% | permeable | 0.08 nM | permeable | IC50 [10]: 16000 nM
4 | Cc1ccc(C(=O)NC2CC2)cc1-c1ncc2c(n1)NC(=O)C21CCCC1 | – | – | – | 1100 nM | – | permeable | – | permeable | –
5 | Cc1ccc(C(=O)NC2CC2)cc1-c1ccc2c(c1)NC(=O)C21CCCCC1 | 29% | 47% | < 5% | – | 57% | permeable | – | permeable | –
6 | Cc1ccc(C(=O)NC2CC2)cc1-c1cnc2c(c1)NC(=O)C21CCOCC1 | 16% | 0% | 5% | 86 nM | 8% | permeable | – | permeable | cytotoxicity at 200 µM [12]: 36%
7 | Cc1ccc(C(=O)NC2CC2)cc1-c1ccc2c(c1)NC(=O)C21CCC(F)(F)CC1 | < 5% | < 5% | < 5% | 10 nM | < 5% | permeable | – | permeable | clearance [13]: 3.33 mL/min/kg; Vd [14]: 4.2 L/kg; IC50 [10]: 7000 nM; Cmax [15]: 436 ng/mL; AUC(0-inf) [16]: 5020 ng·h/mL; MRT [17]: 21 h; half-life [18]: 14.4 h
8 | Cc1ccc(C(=O)Nc2ccon2)cc1-c1ccc2c(c1)NC(=O)C21CCOCC1 | 72% | 23% | < 5% | 7 nM | 74% | permeable | 0.09 nM | permeable | –
9 | Cc1ccc(C(=O)NC2CC2)cc1-c1ccc2c(c1)NC(=O)C2(CCO)CCO | – | – | – | – | – | permeable | 4570 nM | permeable | –
10 | Cc1ccc(C(=O)NC2CC2)cc1-c1ccc2c(c1)NC(=O)[C@]21CC[C@@H](O)CC1 | 81% | 2% | < 5% | 5 nM | 65% | permeable | 1.4 nM | permeable | –
11 | Cc1ccc(C(=O)NC2CC2)cc1-c1cnc2c(c1)NC(=O)C21CCCC1.Cl | – | – | – | – | – | – | – | – | AUC(0-inf) [19]: 12000 ng·h/mL; clearance [13]: 10 mL/min/kg; bioavailability [20]: 65%; Vd [14]: 1.2 L/kg; Cmax [15]: 1240 ng/mL; Cmax [21]: 4620 ng/mL; AUC(0-inf) [16]: 1850 ng·h/mL; MRT [17]: 2.2 h; half-life [18]: 3.9 h
12 | Cc1ccc(C(=O)NC2CC2)cc1-c1ccc2c(c1)NC(=O)C21CCOCC1 | 40% | 16% | < 5% | 14 nM | 34% | permeable | 1.65 nM | permeable | AUC(0-inf) [19]: 10400 ng·h/mL; clearance [13]: 6.67 mL/min/kg; bioavailability [20]: 40%; Vd [14]: 0.8 L/kg; Cmax [15]: 1530 ng/mL; Cmax [21]: 1310 ng/mL; AUC(0-inf) [16]: 2770 ng·h/mL; IC50 [22]: 120 nM; MRT [17]: 2.2 h; half-life [18]: 2.7 h
13 | Cc1ccc(C(=O)NC2CC2)cc1-c1cnc2c(c1)NC(=O)C21CCCC1 | 10% | 16% | < 5% | 69 nM | 19% | permeable | 1.8 nM | permeable | cytotoxicity at 200 µM [12]: 62%; IC50 [22]: 105 nM
14 | Cc1ccc(C(=O)NC2CC2)cc1-c1cc2c(cn1)C1(CCCC1)C(=O)N2 | < 5% | 21% | < 5% | 64 nM | 10% | permeable | – | permeable | cytotoxicity at 200 µM [12]: 29%
15 | Cc1ccc(C(=O)NC2CC2)cc1-c1ccc2c(n1)NC(=O)C21CCCC1 | 16% | 33% | 11% | 128 nM | 19% | permeable | – | permeable | IC50 [10]: 58000 nM
16 | Cc1ccc(C(=O)NC2CC2)cc1-c1ccc2c(c1)NC(=O)[C@]21CC[C@H](O)CC1 | 61% | 15% | 7% | 11 nM | 40% | permeable | 1.4 nM | permeable | –
17 | Cc1ccc(C(=O)Nc2ccon2)cc1-c1ccc2c(c1)NC(=O)C21CCC(F)(F)CC1 | 17% | 14% | < 5% | 4.9 nM | 17% | permeable | 0.9 nM | permeable | –
18 | Cc1ncc(C(=O)NC2CC2)cc1-c1ccc2c(c1)NC(=O)C21CCCC1 | 11% | 30% | < 5% | 150 nM | 29% | permeable | 7.4 nM | permeable | cytotoxicity at 200 µM [12]: 68%
19 | Cc1ccc(C(=O)NC2CC2)cc1-c1cnc2c(c1)NC(=O)C2(C)C | 7% | 2% | < 5% | 544 nM | 8% | permeable | – | permeable | –
20 | Cc1c(F)cc(C(=O)NC2CC2)cc1-c1ccc2c(c1)NC(=O)C21CCN(S(C)(=O)=O)CC1 | 53% | 18% | < 5% | 20 nM | 36% | permeable | – | permeable | –
